Test results reported in patent US4576943A, “Pyrazolo[1,5-a]pyrimidines” (American Cyanamid Company, priority 1984, dated 1986).

How the values were obtained:
[1] = Hypotensive activity in spontaneously hypertensive rats; assay type: in vivo, spontaneously hypertensive rats of the Okamoto strain; conditions: 100 mg/kg by gavage, two doses 24 hours apart, measured at 28 hours after the initial dose; one or two rats
Experimental: The novel compounds of the present invention are active hypotensive agents and were tested for hypotensive activity by the method of P. S. Chan and D. Poorvin, Clinical and Experimental Hypertension, 1 (6), 817-830 (1979). […] One to 3 rats are used per test compound. A rat is dosed by gavage with a test compound suspended in 2% pre-boiled starch at a concentration of 50 mg/ml, at a dose of 100 mg/kg of body weight or less, with 0.9% sodium chloride loading at a dose of 25 ml/kg of body weight. A second identical dose of the test compound, without sodium chloride loading is given 24 hours later. At 28 hours after the initial dose the mean arterial blood pressure is measured by the method of Chan and Poorvin (see above). The procedure is repeated in a second and third rat when necessary. The results of this test on representative compounds of the present invention which were obtained using one or two rats, at a dose of 100 mg/kg of body weight appear below in Table I.

[2] = tested on: brain-specific receptors (tritiated benzodiazepine binding, P2-synaptosomal fraction of rat whole cortex); experiment: Inhibition of the binding of 3H-benzodiazepine to brain-specific receptors of rats; design: species or system Male albino rats (Wistar strain); conditions: 3H-diazepam (1.5 nM) or 3H-flunitrazepam (1.0 nM), pH 7.4, 30 minutes in ice; test concentration not given
Hypoxic Survival Test = assay type: in vivo, Royal Hart mice; conditions: for % Survivors: 10% oxygen, 5 minutes
Experimental: Groups of 20 Royal Hart mice (6 weeks of age) are injected intraperitoneally with 10, 50 or 100 mg/kg of test compound 30 minutes prior to placing them in a hypoxic mixture (10% oxygen in 90% […]) and measuring survival after 5 minutes.
A separate group of 20 mice is injected intraperitoneally with saline solution (0.01 cc/g of body weight) and processed as described above.
Still another group of 20 mice is injected intraperitoneally with 0.125 mg/kg of physostigmine and processed as described above.

Structure (SMILES)	Mean Arterial Blood Pressure [1]	% Inhibition of the binding of 3H-benzodiazepine [2] [%]	further results
CN(C)C=NC(=O)c1c(N2CCN(Cc3ccccc3)CC2)nn2c(-c3cccc(C(F)(F)F)c3)ccnc12 [N-[(Dimethylamino)methylene]-2-[4-(phenylmethyl)-1-piperazinyl]-7-[3-(trifluoromethyl)phenyl]pyrazolo-[1,5-a]pyrimidine-3-carboxamide]	103 mm of mercury	–	–
N#Cc1c(N2CCN(Cc3cccc(Cl)c3)CC2)nn2c(-c3cccc(C(F)(F)F)c3)ccnc12 [2-[4-[(3-Chlorophenyl)methyl]-1-piperazinyl]-7-[3-(trifluoromethyl)phenyl]pyrazolo[1,5-a]pyrimidine-3-carbonitrile]	–	33	–
N#Cc1c(N2CCN(CCCCOc3ccccc3)CC2)nn2c(-c3cccnc3)ccnc12 [2-[4-(4-Phenoxybutyl)-1-piperazinyl]-7-(3-pyridinyl)pyrazolo[1,5-a]pyrimidine-3-carbonitrile]	144 mm of mercury	33	–
N#Cc1c(N2CCN(Cc3c(Cl)cccc3Cl)CC2)nn2c(-c3cccnc3)ccnc12 [2-[4-[(2,6-Dichlorophenyl)methyl]-1-piperazinyl]-7-(3-pyridinyl)pyrazolo[1,5-a]pyrimidine-3-carbonitrile]	124 mm of mercury	–	–
N#Cc1c(N2CCN(Cc3ccc(Cl)cc3)CC2)nn2c(-c3cccnc3)ccnc12 [2-[4-[(4-Chlorophenyl)methyl]-1-piperazinyl]-7-(3-pyridinyl)pyrazolo[1,5-a]pyrimidine-3-carbonitrile]	137 mm of mercury	–	–
NC(=O)c1c(N2CCN(Cc3ccccc3)CC2)nn2c(-c3cccc(C(F)(F)F)c3)ccnc12 [2-[4-(Phenylmethyl)-1-piperazinyl]-7-[3-(trifluoromethyl)phenyl]pyrazolo[1,5-a]pyrimidine-3-carboxamide]	–	14	–
N#Cc1c(N2CCCCC2)nn2c(-c3cccnc3)ccnc12 [2-(1-Piperidinyl)-7-(3-pyridinyl)pyrazolo[1,5-a]pyrimidine-3-carbonitrile]	141 mm of mercury	14	% Survivors (Hypoxic Survival Test; 100 mg/kg i.p.): 45%
N#Cc1c(N2CCC(Cc3ccccc3)CC2)nn2c(-c3cccc(C(F)(F)F)c3)ccnc12 [2-[4-(Phenylmethyl)-1-piperidinyl]-7-[3-(trifluoromethyl)phenyl]pyrazolo[1,5-a]pyrimidine-3-carbonitrile]	142 mm of mercury	46	–
N#Cc1c(N2CCSCC2)nn2c(-c3cccnc3)ccnc12 [7-(3-Pyridinyl)-2-(4-thiomorpholinyl)pyrazolo[1,5-a]pyrimidine-3-carbonitrile]	141 mm of mercury	–	% Survivors (Hypoxic Survival Test; 100 mg/kg i.p.): 50%
CN1CCN(c2nn3c(-c4cccc(C(F)(F)F)c4)ccnc3c2C#N)CC1 [2-(4-Methyl-1-piperazinyl)-7-[3-(trifluoromethyl)phenyl]pyrazolo[1,5-a]pyrimidine-3-carbonitrile]	139 mm of mercury	–	–
Cc1cc(-c2ccncc2)n2nc(N3CCN(Cc4ccccc4)CC3)c(C#N)c2n1 [5-Methyl-2-[4-(phenylmethyl)-1-piperazinyl]-7-(4-pyridinyl)pyrazolo[1,5-a]pyrimidine-3-carbonitrile]	122 mm of mercury	–	–
N#Cc1c(N2CCN(Cc3c(Cl)cccc3Cl)CC2)nn2c(-c3cccc(C(F)(F)F)c3)ccnc12 [2-[4-[(2,6-Dichlorophenyl)methyl]-1-piperazinyl]-7-[3-(trifluoromethyl)phenyl]pyrazolo[1,5-a]pyrimidine-3-carbonitrile]	–	22	–
N#Cc1c(N2CCN(Cc3ccccc3)CC2)nn2c(-c3cccc(Cl)c3)ccnc12 [7-(3-Chlorophenyl)-2-[4-(phenylmethyl)-1-piperazinyl]pyrazolo[1,5-a]pyrimidine-3-carbonitrile]	147 mm of mercury	–	% Survivors (Hypoxic Survival Test; 50 mg/kg i.p.): 47%
N#Cc1c(N2CCN(CCCCOc3ccccc3)CC2)nn2c(-c3cccc(C(F)(F)F)c3)ccnc12 [2-[4-(4-Phenoxybutyl)-1-piperazinyl]-7-[3-(trifluoromethyl)phenyl]pyrazolo[1,5-a]pyrimidine-3-carbonitrile]	147 mm of mercury	26	–
COc1cccc(CN2CCN(c3nn4c(-c5cccnc5)ccnc4c3C#N)CC2)c1.Cl [2-[4-[(3-Methoxyphenyl)methyl]-1-piperazinyl]-7-(3-pyridinyl)pyrazolo[1,5-a]pyrimidine-3-carbonitrile, monohydrochloride]	138 mm of mercury	18	–
N#Cc1c(N2CCN(CCO)CC2)nn2c(-c3cccc(C(F)(F)F)c3)ccnc12 [2-[4-(2-Hydroxyethyl)-1-piperazinyl]-7-[3-(trifluoromethyl)phenyl]pyrazolo[1,5-a]pyrimidine-3-carbonitrile]	111 mm of mercury	41	% Survivors (Hypoxic Survival Test; 10 mg/kg i.p.): 45%
N#Cc1c(N2CCN(Cc3ccc(Cl)cc3)CC2)nn2c(-c3cccc(C(F)(F)F)c3)ccnc12 [2-[4-[(4-Chlorophenyl)methyl]-1-piperazinyl]-7-[3-(trifluoromethyl)phenyl]pyrazolo[1,5-a]pyrimidine-3-carbonitrile]	127 mm of mercury	15	–
N#Cc1c(N2CCN(CCO)CC2)nn2c(-c3cccnc3)ccnc12 [2-[4-(2-Hydroxyethyl)-1-piperazinyl]-7-(3-pyridinyl)pyrazolo[1,5-a]pyrimidine-3-carbonitrile]	–	25	–
COc1cccc(CN2CCN(c3nn4c(-c5cccc(C(F)(F)F)c5)ccnc4c3C#N)CC2)c1 [2-[4-[(3-Methoxyphenyl)methyl]-1-piperazinyl]-7-[3-(trifluoromethyl)phenyl]pyrazolo[1,5-a]pyrimidine-3-carbonitrile]	140 mm of mercury	–	–
N#Cc1c(N2CCN(Cc3ccccc3)CC2)nn2c(-c3ccc(Cl)cc3)ccnc12 [7-(4-Chlorophenyl)-2-[4-(phenylmethyl)-1-piperazinyl]pyrazolo[1,5-a]pyrimidine-3-carbonitrile]	142 mm of mercury	–	–
N#Cc1c(N2CCN(c3ccccn3)CC2)nn2c(-c3cccnc3)ccnc12 [7-(3-Pyridinyl)-2-[4-(2-pyridinyl)-1-piperazinyl]pyrazolo[1,5-a]pyrimidine-3-carbonitrile]	143 mm of mercury	–	–
N#Cc1c(N2CCN(Cc3ccccc3)CC2)nn2c(-c3cccnc3)ccnc12 [2-[4-(Phenylmethyl)-1-piperazinyl]-7-(3-pyridinyl)pyrazolo[1,5-a]pyrimidine-3-carbonitrile]	124 mm of mercury	–	% Survivors (Hypoxic Survival Test; 50 mg/kg i.p.): 40%
N#Cc1c(N2CCSCC2)nn2c(-c3cccc(C(F)(F)F)c3)ccnc12 [2-(4-Thiomorpholinyl)-7-[3-(trifluoromethyl)phenyl]pyrazolo[1,5-a]pyrimidine-3-carbonitrile]	148 mm of mercury	–	–
N#Cc1c(N2CCN(Cc3cccc(Cl)c3)CC2)nn2c(-c3cccnc3)ccnc12 [2-[4-[(3-Chlorophenyl)methyl]-1-piperazinyl]-7-(3-pyridinyl)pyrazolo[1,5-a]pyrimidine-3-carbonitrile]	137 mm of mercury	12	–
COc1ccc(CN2CCN(c3nn4c(-c5cccc(C(F)(F)F)c5)ccnc4c3C#N)CC2)cc1 [2-[4-[(4-Methoxyphenyl)methyl]-1-piperazinyl]-7-[3-(trifluoromethyl)phenyl]pyrazolo[1,5-a]pyrimidine-3-carbonitrile]	136 mm of mercury	18	–
CNC(=O)Oc1ccc2c(c1)[C@]1(C)CCN(C)[C@@H]1N2C [physostigmine, reference compound]	–	–	physostigmine treated mice survive (Hypoxic Survival Test; 0.125 mg/kg i.p., 5 minute exposure): 60-80%
